Data set [1] in a line: two week range finding toxicity study in cynomolgus monkeys. Type of data set: in vivo, cynomolgus monkey. The conditions noted are these: 10, 30, 100 and 300 mg/kg daily, two weeks. The protocol:
A two week range finding study in cynomolgus monkeys was carried out at daily doses of 10, 30, 100 and 300 mg/kg of Compound (16).

Another data set addresses T1, COX II (Homo sapiens, UniProt P35354).
T1 sequence (P35354 18-604): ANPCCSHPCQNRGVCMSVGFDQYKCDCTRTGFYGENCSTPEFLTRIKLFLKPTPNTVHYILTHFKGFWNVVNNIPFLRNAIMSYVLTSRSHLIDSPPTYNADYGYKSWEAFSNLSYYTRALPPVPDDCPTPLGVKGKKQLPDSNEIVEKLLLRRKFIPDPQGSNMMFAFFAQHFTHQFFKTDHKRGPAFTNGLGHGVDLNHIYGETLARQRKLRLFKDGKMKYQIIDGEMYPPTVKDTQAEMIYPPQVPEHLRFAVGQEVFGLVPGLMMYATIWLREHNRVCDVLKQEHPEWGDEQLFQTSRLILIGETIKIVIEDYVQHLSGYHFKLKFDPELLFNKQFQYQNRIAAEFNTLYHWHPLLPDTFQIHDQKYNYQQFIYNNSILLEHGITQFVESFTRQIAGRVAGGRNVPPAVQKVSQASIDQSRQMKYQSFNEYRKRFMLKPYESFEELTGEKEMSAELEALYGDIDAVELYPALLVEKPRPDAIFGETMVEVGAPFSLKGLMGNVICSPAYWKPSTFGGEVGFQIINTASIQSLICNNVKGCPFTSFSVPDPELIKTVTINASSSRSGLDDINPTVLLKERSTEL
Put plainly: PGE2 production in human foreskin fibroblasts stimulated with IL-1 and PMA. Further details: A 1.8 Kb DNA fragment containing the coding region of human COX II was generated by PCR; made in house; host or cells: Sf9 insect cells, baculovirus. The conditions noted are these: read-out: COX II IC50, inhibition of PGE2 production. Type of data set: cell-based. The procedure:
A summary of activities of Compound (16) against COX I and COX II in cell-free enzyme preparations and whole cells is presented in Table 1. The following abbreviations are used: AA is arachidonic acid, IL-1 is interleukin 1, PMA is phorbol myristate acetate, A23187 is a calcium ionophore (Sigma), BSA is bovine serum albumin and LPS is a lipopolysaccharide (Sigma).
Human foreskin fibroblasts
30 min incubation with Compound (16)
16 hr admulation with IL-1 and PMA
washing, transfer to fresh media
EIA determination of PGE2
16 hr stimulation with IL-1 and PMA
RIA determination of PGE2

“And” between values parts separate entries of the source, which are not always exact repeats. Identical values can stand only once. Like-named read-outs stand apart in the source and are kept apart here. Some results are limits rather than exact numbers.

For `Cc1cc(Cc2ccc(=O)[nH]n2)n(C)c1C(=O)c1ccc(Cl)cc1` [Compound 16, 6-[1,4-dimethyl-5-(4chloro-benzoyl)-1H-pyrrol-2-ylmethyl]-2H-pyridazin-3-one], the “clinical signs, clinical chemistry, gross pathology or histopathology” value in data set [1] is on record as “No abnormalities were observed”. Moreover, the IC50 on COX II (30 min incubation, 10 min activation, 5 μM A23187, RIA determination of PGE2) is 120 nM and 170 nM and 140 nM; on COX II (30 min incubation; a) 10 min activation with 5 μM A23187, EIA determination of PGE2), not above 100 nM; at COX II (30 min incubation; b) 10 min activation with 20 μM AA + FA-free BSA, EIA determination of PGE2), approximately 2700 nM.
